Results on 19 molecules are retold here after patent publication US7157487B2, “Vla-4 inhibitors” (Daiichi Pharmaceutical Co., Ltd., priority 2000, dated 2007).

Data set [1] can be described thus: Pharmacokinetics and oral bioavailability in rats. It is filed as in vivo. Conditions: Rat, oral, plasma; for AUC: LC/MS/MS; for bioavailability: read-out: F (%) oral bioavailability; for clearance: read-out: CLtot (mL/min/kg) apparent plasma clearance. From the text: (§1) The pharmacokinetic parameter of the test compound orally administered to rats or dogs are described below.

A short description of data set [2]: Pharmacokinetics and oral bioavailability in dogs. Conditions: 2 /kg, Dog, oral, Dose/kg 2.0, plasma; for AUC: LC/MS/MS; for bioavailability: read-out: F (%) oral bioavailability; for clearance: read-out: CLtot (mL/min/kg) apparent plasma clearance. It counts as in vivo.
Text: as §1

Data set [3] deals with T1, integrins haα4 and β1 (VLA-4) expressed on CHO cells (Homo sapiens, UniProt P05556+P13612).
T1 construct: expressed in transfected cells; host or cells: CHO cells
T1 sequence (P13612 34-1032): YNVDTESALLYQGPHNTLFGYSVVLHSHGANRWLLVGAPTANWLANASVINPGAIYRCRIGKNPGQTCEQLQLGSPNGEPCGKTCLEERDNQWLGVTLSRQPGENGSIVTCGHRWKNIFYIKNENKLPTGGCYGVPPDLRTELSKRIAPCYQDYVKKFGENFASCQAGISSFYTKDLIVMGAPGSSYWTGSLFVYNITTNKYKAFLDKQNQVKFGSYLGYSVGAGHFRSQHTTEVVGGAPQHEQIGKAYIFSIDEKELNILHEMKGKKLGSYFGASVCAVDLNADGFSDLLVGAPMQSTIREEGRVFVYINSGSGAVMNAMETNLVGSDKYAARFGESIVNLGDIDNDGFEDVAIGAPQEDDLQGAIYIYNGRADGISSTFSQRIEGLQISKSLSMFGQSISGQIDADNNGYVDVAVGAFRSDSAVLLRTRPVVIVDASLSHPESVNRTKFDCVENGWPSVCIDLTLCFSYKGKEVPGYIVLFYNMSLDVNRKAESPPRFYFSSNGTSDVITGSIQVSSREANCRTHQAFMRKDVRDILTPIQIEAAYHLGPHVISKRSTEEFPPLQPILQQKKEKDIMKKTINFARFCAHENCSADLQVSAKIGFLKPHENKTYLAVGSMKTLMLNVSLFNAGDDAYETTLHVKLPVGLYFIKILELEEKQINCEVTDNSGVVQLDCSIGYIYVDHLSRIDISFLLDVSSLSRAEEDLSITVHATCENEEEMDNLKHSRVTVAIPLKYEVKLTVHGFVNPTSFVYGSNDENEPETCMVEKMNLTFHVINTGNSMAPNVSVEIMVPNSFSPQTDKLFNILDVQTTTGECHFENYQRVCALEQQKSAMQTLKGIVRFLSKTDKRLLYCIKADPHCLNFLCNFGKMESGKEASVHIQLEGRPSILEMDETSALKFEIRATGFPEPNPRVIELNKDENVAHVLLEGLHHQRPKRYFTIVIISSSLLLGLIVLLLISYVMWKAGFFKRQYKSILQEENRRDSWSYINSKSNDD
T1 sequence (P05556 21-798): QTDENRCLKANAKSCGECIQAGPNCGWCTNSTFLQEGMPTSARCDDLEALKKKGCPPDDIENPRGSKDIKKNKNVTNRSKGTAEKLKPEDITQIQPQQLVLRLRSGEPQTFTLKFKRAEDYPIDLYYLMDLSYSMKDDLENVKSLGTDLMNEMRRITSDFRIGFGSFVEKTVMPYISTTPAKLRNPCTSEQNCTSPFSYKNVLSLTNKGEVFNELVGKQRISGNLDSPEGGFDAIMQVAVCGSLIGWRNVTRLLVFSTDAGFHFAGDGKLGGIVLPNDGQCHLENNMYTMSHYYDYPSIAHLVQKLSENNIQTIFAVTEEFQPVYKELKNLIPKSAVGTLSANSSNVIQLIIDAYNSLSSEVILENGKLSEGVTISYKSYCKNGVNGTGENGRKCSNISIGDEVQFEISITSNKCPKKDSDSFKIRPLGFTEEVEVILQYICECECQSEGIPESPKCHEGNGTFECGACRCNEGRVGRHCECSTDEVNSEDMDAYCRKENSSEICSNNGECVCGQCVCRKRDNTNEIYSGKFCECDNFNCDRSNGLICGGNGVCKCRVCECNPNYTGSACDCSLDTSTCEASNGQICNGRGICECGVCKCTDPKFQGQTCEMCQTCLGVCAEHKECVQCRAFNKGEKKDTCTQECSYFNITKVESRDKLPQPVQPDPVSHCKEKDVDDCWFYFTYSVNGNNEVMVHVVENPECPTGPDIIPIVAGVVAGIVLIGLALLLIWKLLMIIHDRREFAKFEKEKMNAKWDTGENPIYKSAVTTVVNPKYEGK
The data set can be described thus: In vitro Evaluation Test (1): binding of Eu3+-hVCAM-1 D1D7-IgG to CHO cells expressing integrins α4 and β1. Conditions: inhibition of Eu3+-hVCAM-1 D1D7-IgG binding to CHO cells expressing α4β1; Ki calculated from IC50. In short, it runs like this: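 CHO cells transduced with human α4 and β1 were grown for 2 days. They were incubated 1 h at room temperature with Eu3+-hVCAM-1 D1D7-IgG (diluted to 2 nM before addition) and compound, with or without 6% HSA, in HEPES pH 7.5 containing Ca2+, Mg2+ and 4 mM Mn2+. Time-resolved fluorescence gave IC50; Ki used a Scatchard-derived Kd (0.06–20 nM).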

A short description of data set [4]: Evaluation of oral bioavailability by mouse bioassay. It counts as in vivo. Particulars: 10 mg/kg oral, female Balb/C mice, serum 15 minutes after administration, read-out: Blood level. As for the experimental part: A test compound was suspended or dissolved in a proper administration medium to give a concentration of 1 mg/ml. To 7 to 9 week old female Balb/C mice, 10 mg/kg of the resulting suspension or solution was orally administered. Fifteen minutes after the administration, blood was collected from the postcava under anesthesia with ether and the serum was separated from it. The concentration of each test compound was determined by estimating the serum level from a calibration curve obtained with VCAM-1/VLA-4 inhibitory activity as an index or measuring the concentration by using LC/MS/MS.

In a further data set the test system is VLA-4 expressed cells. Particulars: literature report; cited from earlier work.
The target of another data set is VLA-4 (Homo sapiens, UniProt P05556+P13612). Conditions: in vitro, literature report; cited from earlier work.
Sequence of VLA-4 (P13612 34-1032): as the sequence (P13612 34-1032) above
Sequence of VLA-4 (P05556 21-798): as the sequence (P05556 21-798) above
Data set [5] deals with cardiac transplantation of rabbits. Particulars: literature report; cited from earlier work.

`CO[C@H]1C[C@@H](COC2CCC(C(=O)O)CC2)N(C(=O)Cc2ccc3nc(Nc4ccccc4C)oc3c2)C1` (single isomer, unassigned) [20 (Isomer A)]: in data set [1] (2 /kg, Dose/kg 2.0), the AUC – broadly, the area under the concentration-time curve, a measure of exposure – is 152 ng·h/mL; the bioavailability (usually the share of a dose that reaches the circulation, judged against a reference dose that is usually intravenous) worked out at 35%; the clearance is 73 mL/min/kg. Also, in data set [2], the AUC was found to be 776 ng·h/mL, the bioavailability worked out at 44% and the clearance turned out to be 19.1 mL/min/kg.

With `Cc1ccccc1Nc1nc2ccc(CC(=O)N3C[C@@H](F)C[C@H]3COC3CCC(C(=O)O)CC3)cc2o1` (single isomer, unassigned) [21 (Isomer H)], the Ki (commonly the equilibrium dissociation constant of an inhibitor or competing ligand from its target) in data set [3] is 2.5 nM. In data set [1] (5 /kg, Dose/kg 5.0), the AUC came to 14900 ng·h/mL, the bioavailability was 52% and the clearance was found to be 3.3 mL/min/kg. For the same molecule, in data set [2], the AUC stood at 760 ng·h/mL, the bioavailability was determined as 40% and the clearance was determined as 17.9 mL/min/kg.

As to `CS[C@H]1C[C@@H](CO[C@H]2CC[C@H](C(=O)O)CC2)N(C(=O)Cc2cc(Cl)c(NC(=O)c3cn(C)c4ccccc34)cc2F)C1` [Example 125, trans-4-(1-((5-Chloro-2-fluoro-4-((1-methyl-3-indolylcarbonyl)amino)phenyl)acetyl)-(4S)-methylthio-(2S)-pyrrolidinylmethoxy)cyclohexanecarboxylic acid], the Ki in data set [3] was 6.5 nM. In addition, the concentration at 15 min in data set [4] came to 2570 ng/mL.

For `Cn1cc(C(=O)Nc2cc(F)c(CC(=O)N3CCC[C@H]3CO[C@H]3CC[C@H](C(=O)O)CC3)cc2Cl)c2ccccc21` [Example 130, trans-4-(1-((5-Chloro-2-fluoro-4-(1-methyl-3-indolylcarbonylamino)phenyl)acetyl)-(2S)-pyrrolidinylmethoxy)-1-cyclohexanecarboxylic acid], in data set [3], the Ki is 8.8 nM. Further, the concentration at 15 min in data set [4] is 3590 ng/mL.

On to `C[C@H]1CC[C@@H](CO[C@H]2CC[C@H](C(=O)O)CC2)N1C(=O)Cc1cc(Cl)c(NC(=O)c2cn(C)c3ccccc23)cc1F` [Example 136, trans-4-(1-((5-chloro-2-fluoro-4-((1-methyl-3-indolyl)carbonylamino)phenyl)acetyl)-(5S)-methyl-(2S)-pyrrolidinylmethoxy)cyclohexanecarboxylic acid], for which the Ki in data set [3] was 5.4 nM. For the same molecule, the concentration at 15 min in data set [4] was 2500 ng/mL.

With `COC[C@H]1C[C@@H](CO[C@H]2CC[C@H](C(=O)O)CC2)N(C(=O)Cc2cc(Cl)c(NC(=O)c3cn(C)c4ccccc34)cc2F)C1` [Example 138, trans-4-(1-(5-Chloro-2-fluoro-4-((1-methyl-1H-3-indolylcarbonyl)amino)phenylacetyl)-(4S)-methoxymethyl-(2S)-pyrrolidinylmethoxy)cyclohexanecarboxylic acid], the Ki in data set [3] is 15 nM. The concentration at 15 min in data set [4] came out at 1260 ng/mL.

As for `COC[C@H]1C[C@@H](CO[C@H]2CC[C@H](C(=O)O)CC2)N(C(=O)Cc2cc(Cl)c(NC(=O)c3nn(C)c4ccccc34)cc2F)C1` [Example 139, trans-4-(1-(5-Chloro-2-fluoro-4-((1-methyl-1H-indazole-3-indazolylcarbonyl)amino)phenylacetyl)-(4S)-methoxymethyl-(2S)-pyrrolidinylmethoxy)cyclohexanecarboxylic acid], the Ki in data set [3] was 9.1 nM. In data set [4], the concentration at 15 min amounted to 2430 ng/mL.

Take `COC[C@@H]1CC[C@@H](CO[C@H]2CC[C@H](C(=O)O)CC2)N1C(=O)Cc1cc(Cl)c(NC(=O)c2cn(C)c3ccccc23)cc1F` [Example 141, trans-4-((1-(5-Chloro-2-fluoro-4-((1-methyl-3-indolyl)carbonylamino)phenyl)acetyl)-(5S)-methoxymethyl-(2S)-pyrrolidinylmethoxy)cyclohexanecarboxylic acid]: the Ki in data set [3] was 21 nM. The concentration at 15 min in data set [4] was 8820 ng/mL.

Regarding `CO[C@@H]1CN(C(=O)Cc2ccc3nc(Nc4ccccc4C)oc3c2)C[C@@H]1Oc1ccc(C(=O)O)cc1` [Example 155, 4-((4R)-Methoxy-1-((2-(2-methylphenylamino)-6-benzoxazolyl)acetyl)-(3S)-pyrrolidinyloxy)benzoic acid], in data set [3], the Ki is 20 nM. In addition, the concentration at 15 min in data set [4] came out at 571 ng/mL.

On to `COC[C@H]1CC[C@@H](CO[C@H]2CC[C@H](C(=O)O)CC2)N1C(=O)Cc1cc(Cl)c(NC(=O)c2cn(C)c3ccccc23)cc1F` [Example 164, trans-4-(1-((5-Chloro-2-fluoro-4-((1-methyl-3-indolylcarbonyl)amino)phenyl)acetyl)-(5R)-methoxymethyl-(2S)-pyrrolidinylmethoxy)cyclohexanecarboxylic acid], for which the Ki in data set [3] was 6.4 nM. In data set [4], the concentration at 15 min came out at 2300 ng/mL.

`COC[C@H]1CC[C@@H](CO[C@H]2CC[C@@H](C(=O)O)CC2)N1C(=O)Cc1ccc2nc(Nc3cc(F)ccc3C)oc2c1F` [Example 165, trans-4-(1-((2-(5-Fluoro-2-methylphenylamino)-7-fluoro-6-benzoxazolyl)acetyl)-(5R)-methoxymethyl-(2S)-pyrrolidinylmethoxy)cyclohexanecarboxylic acid]: the Ki in data set [3] is 2.9 nM. Further, in data set [4], the concentration at 15 min was 816 ng/mL.

On to `COC[C@H]1CC[C@@H](CO[C@H]2CC[C@H](C(=O)O)CC2)N1C(=O)Cc1cc(Cl)c(NC(=O)c2nn(C)c3ccccc23)cc1F` [Example 166, trans-4-(1-((5-Chloro-2-fluoro-4-((1-methyl-3-indazolylcarbonyl)amino)phenyl)acetyl)-(5R)-methoxymethyl-(2S)-pyrrolidinylmethoxy)cyclohexanecarboxylic acid], for which, in data set [3], the Ki is 7.9 nM. In addition, the concentration at 15 min in data set [4] stood at 3070 ng/mL.

On to `CO[C@H]1CCN(C(=O)Cc2cc(Cl)c(NC(=O)c3nn(C)c4ccccc34)cc2F)[C@@H]1CO[C@H]1CC[C@H](C(=O)O)CC1` [Example 169, trans-4-(1-((5-Chloro-2-fluoro-4-((1-methyl-3-indazolylcarbonyl)amino)phenyl)acetyl)-(3S)-methoxy-(2R)-pyrrolidinylmethoxy)cyclohexanecarboxylic acid], for which, in data set [3], the Ki was 16 nM. Moreover, the concentration at 15 min in data set [4] is 21800 ng/mL.

Take `CO[C@H]1C[C@@H](CO[C@H]2CC[C@H](C(=O)O)CC2)N(C(=O)Cc2cc(Cl)c(NC(=O)c3cn(C)c4ccccc34)cc2Cl)C1` [Example 170, trans-4-(1-(2,5-Dichloro-4-((1-methyl-1H-3-indolylcarbonyl)amino)phenylacetyl)-(4S)-methoxy-(2S)-pyrrolidinylmethoxy)cyclohexanecarboxylic acid]: the Ki in data set [3] was 4.3 nM. In data set [4], the concentration at 15 min is 3360 ng/mL.

`CO[C@H]1C[C@@H](CO[C@H]2CC[C@H](C(=O)O)CC2)N(C(=O)Cc2cc(Cl)c(NC(=O)c3nsc4ccccc34)cc2F)C1` [Example 171, trans-4-(1-(5-Chloro-2-fluoro-4-((3-benzo(d)isothiazolylcarbonyl)amino)phenylacetyl)-(4S)-methoxy-(2S)-pyrrolidinylmethoxy)cyclohexanecarboxylic acid]: the Ki in data set [3] is 5 nM. The concentration at 15 min in data set [4] stood at 2730 ng/mL.

Consider `O=C(Nc1cc(F)c(CC(=O)N2C[C@@H](F)C[C@H]2CO[C@H]2CC[C@H](C(=O)O)CC2)cc1Cl)c1n[nH]c2ccccc12` [Example 172, trans-4-(1-((5-Chloro-2-fluoro-4-(3-indazolylcarbonylamino)phenyl)acetyl)-(4S)-fluoro-(2S)-pyrrolidinylmethoxy)cyclohexanecarboxylic acid], for which, in data set [3], the Ki is 6.8 nM. Also, the concentration at 15 min in data set [4] was 848 ng/mL.

Turning to `CC(C)[C@H]1CC[C@@H](CO[C@H]2CC[C@H](C(=O)O)CC2)N1C(=O)Cc1cc(Cl)c(NC(=O)c2cn(C)c3ccccc23)cc1F` [Example 173, trans-4-(1-((5-Chloro-2-fluoro-4-((1-methyl-3-indolylcarbonyl)amino)phenyl)acetyl)-(5R)-isopropyl-(2S)-pyrrolidinylmethoxy)cyclohexanecarboxylic acid], in data set [3], the Ki is 10 nM. Also, the concentration at 15 min in data set [4] was found to be 3470 ng/mL.

On to CQIDSPC, for which the “inhibition of adhesion of VLA-4 expressed cells to purified VCAM-1” value with VLA-4 expressed cells is reported as “succeeded in inhibiting adhesion”.

“phenylacetic acid-Leu-Asp-Phe-d-Pro-amide [synthetic CS-1 tetrapeptide]”: the “inhibition of leukocyte adhesion mediated by VLA-4” value on VLA-4 is on record as “in vitro inhibition”. Further, the “advance of coronary arterial diseases” value in data set [5] is “amelioration of advance of coronary arterial diseases”.
